Results from patent US20140271667A1, “Methods and Compositions for Neoadjuvant Therapy” (The Wistar Institute of Anatomy and Biology, priority 2013, published 2014).

System: LN229 spheroids
Experiment: Spheroid live/dead staining (calcein-AM/Topro-3), 2-photon microscopy
Assay type: cell-based, human
Description: For cell migration experiments using a wound closure assay, confluent monolayers of MRC-5 cells were incubated with vehicle or Gamitrinib (5-10 μM), and wounded using a 10 μl pipette tip. Three micrographs/well were obtained at time=0, 16 and 24 h after wounding, and the percentage of wound closure was normalized to the maximum initial area for each well. For analysis of tumor cell invasion in 3D organotypic spheroids, tumor cells (5×10^4) were seeded onto 96-well plates coated with 1.5% agar (Difco Noble Agar) in PBS, pH 7.4. Spheroids were allowed to form over a 72 h period and then embedded in […] of bovine collagen type I (Organogenesis) in 24-well plates. Spheroids were overlaid with 1 ml of growth medium, treated with various concentrations of Gamitrinib for 72 h, and analyzed for changes in maximum invasion distance and invasion area. Quantification of live vs. dead cells under the various conditions tested was performed by staining the spheroids with calcein-AM (live, bright cluster) and Topro-3 (dead, dark spots) (Invitrogen) for 2 h. Samples were imaged using a Prairie Ultima II 2-photon microscope (Prairie Technologies, Inc, Middleton, Wis.), and stacks of 100 slices were generated in 2 channels. 3-D reconstruction of the labeled spheroids and analysis of cell staining was carried out using ImagePro Plus 3D software (Media Cybernetics, Silver Spring Md.).

Substance: Gamitrinib
- overall cell viability in a 3-D microenvironment: not affected
